For one assay, the target named is human IDO (Homo sapiens, UniProt P14902). Description: Cell based IDO/kynurenine assay in IDO-293-T-Rex cells. Particulars: kynurenine production, 293T cells expressing human IDO, read-out: hIDO EC50. Summed up:
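293-T-REx cells stably carrying doxycycline-inducible human or murine IDO were incubated with inhibitors in induction medium for 16 h at 37° C. Medium was TCA-treated at 60° C and reacted with p-dimethylaminobenzaldehyde. Kynurenine was quantified by absorbance at 480 nm.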

For assay [1], the target named is purified human IDO protein (Homo sapiens, UniProt P14902). Description: Enzymatic IDO assay (kynurenine production, absorbance 480 nm). Particulars: recombinant human IDO, enzymatic activity.
Another assay concerns the target T1, murine IDO (Mus musculus, UniProt P28776).
T1 construct: expressed in transfected cells; host or cells: 293-T-REx cells (Invitrogen), doxycycline-inducible CMV-tet promoter
Kind of assay: Cell based IDO/kynurenine assay in 293-T-Rex cells expressing murine IDO. As to conditions: cells expressing murine IDO, read-out: mIDO EC50. The protocol:
Transfected cells were selected in DBZ medium (DMEM, 10% FBS, 1× Penicillin+Streptomycin, 2 mM L-glutamine, 5 μg/mL blasticidin and 25 μg/ml Zeocin) at 37° C. with a 5% CO2 in air atmosphere. Individual clones were isolated by limiting dilution cloning from these populations.
The cells incubated in Neutral medium serve as negative control of the assay. The cells incubated in Induction medium and without inhibitor serve as the positive control of the assay. The incubation is carried out for 16 h at 37° C. in a cell culture incubator. 200 μL of medium are transferred to U-bottom polypropylene 96-well plates containing 25 μL of 30% TCA, incubated 30 minutes at 60° C. and centrifuged at 3400 g for 5 minutes. 150 μL of the clear supernatant is transferred to a polystyrene 96-well plate containing 50 μL of 4% (w/v) of p-dimethylaminobenzaldehyde in acetic acid, incubated for 10 min. Kynurenine concentration is determined by measuring the absorbance at 480 nm.

Where two headings read alike, the source gives them in different places. Some results are limits rather than exact numbers.

purified human IDO protein, sequence (P14902 whole entry P110S/E119G): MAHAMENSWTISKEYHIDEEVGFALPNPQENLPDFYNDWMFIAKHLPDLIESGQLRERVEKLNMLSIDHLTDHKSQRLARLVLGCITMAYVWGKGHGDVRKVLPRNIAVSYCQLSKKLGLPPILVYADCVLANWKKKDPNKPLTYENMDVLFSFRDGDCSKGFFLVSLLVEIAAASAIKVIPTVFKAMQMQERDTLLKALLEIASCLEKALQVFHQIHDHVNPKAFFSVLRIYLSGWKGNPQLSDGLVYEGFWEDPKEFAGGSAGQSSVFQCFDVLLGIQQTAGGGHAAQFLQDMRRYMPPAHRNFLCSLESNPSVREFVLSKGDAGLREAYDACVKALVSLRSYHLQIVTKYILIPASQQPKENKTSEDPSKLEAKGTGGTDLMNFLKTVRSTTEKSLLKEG
T1 sequence (P28776 whole entry): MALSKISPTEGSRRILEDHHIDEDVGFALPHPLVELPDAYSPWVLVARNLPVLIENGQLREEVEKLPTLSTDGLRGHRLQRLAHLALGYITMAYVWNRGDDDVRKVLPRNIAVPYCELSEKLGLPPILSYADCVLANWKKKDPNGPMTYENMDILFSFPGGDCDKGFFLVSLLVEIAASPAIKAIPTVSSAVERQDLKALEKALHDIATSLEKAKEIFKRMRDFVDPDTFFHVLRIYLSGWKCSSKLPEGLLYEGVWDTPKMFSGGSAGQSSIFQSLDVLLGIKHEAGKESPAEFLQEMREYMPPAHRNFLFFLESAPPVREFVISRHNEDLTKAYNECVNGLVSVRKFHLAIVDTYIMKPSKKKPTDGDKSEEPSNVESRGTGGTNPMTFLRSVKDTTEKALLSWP
human IDO, sequence (P14902 whole entry): as the sequence (P14902 whole entry P110S/E119G) above, with S110P, G119E counted along it

As usually defined, the EC50 is the concentration giving half of the maximal effect. In general, IC50 refers to the concentration that inhibits the measured activity by half. On to `Cc1nc(-c2ccccc2)ncc1CON` [compound 1740, O-((4-methyl-2-phenylpyrimidin-5-yl)methyl)hydroxylamine], for which the EC50 at human IDO (Table 15) and at murine IDO (Table 15) was < 10 µM each time. For the same compound, the 50% inhibitory concentration (IC50) in assay [1] (hIDO IC50, Table 15) was 10 to 100 µM.

For `NOCc1ccc2ncccc2c1` [compound 1741, O-(quinolin-6-ylmethyl)hydroxylamine], the EC50 on human IDO (Table 15) and at murine IDO (Table 15) was < 10 µM throughout. Moreover, the 50% inhibitory concentration (IC50) in assay [1] (hIDO IC50, Table 15) was 10 to 100 µM.

Take `NOCc1csc2ccc(Cl)cc12` [compound 1743, O-((5-chlorobenzo[b]thiophen-3-yl)methyl)hydroxylamine]: the half-maximal effective concentration (EC50) was < 10 µM at human IDO (Table 15) and 10 to 100 µM at murine IDO (Table 15). Besides, the IC50 in assay [1] (hIDO IC50, Table 15) was < 10 µM.

Consider `NOCc1ccc2c(c1)OCO2` [compound 1744, O-(benzo[d][1,3]dioxol-5-ylmethyl)hydroxylamine], for which the figures for the EC50 at human IDO (Table 15) and on murine IDO (Table 15) were < 10 µM and 10 to 100 µM, respectively. For the same compound, in assay [1] (hIDO IC50, Table 15), the IC50 is < 10 µM.

For the compound `NOCc1nc2ccccc2s1` [compound 1749, O-(benzo[d]thiazol-2-ylmethyl)hydroxylamine], the EC50 on human IDO (Table 15) and on murine IDO (Table 15) was < 10 µM each time. Also, the IC50 in assay [1] (hIDO IC50, Table 15) was < 10 µM.

For `NOCc1ccc2c(c1)OCCO2` [compound 1750, O-((2,3-dihydrobenzo[b][1,4]dioxin-6-yl)methyl)hydroxylamine], the EC50 at human IDO (Table 15) is < 10 µM; at murine IDO (Table 15), 10 to 100 µM. Moreover, the IC50 in assay [1] (hIDO IC50, Table 15) was in the range of 10 to 100 µM.

As for `NOCCc1cccc([N+](=O)[O-])c1` [compound 1752, O-(3-nitrophenethyl)hydroxylamine], the EC50 at human IDO (Table 16) and at murine IDO (Table 16) was < 10 µM in each case. Further, the IC50 in assay [1] (hIDO IC50, Table 16) is < 10 µM.

As for `C=CCC(ON)c1cccc([N+](=O)[O-])c1` (stereo not drawn) [compound 1755, O-(1-(3-nitrophenyl)but-3-enyl)hydroxylamine], the concentration giving a half-maximal response (EC50) at human IDO (Table 16) and on murine IDO (Table 16) was < 10 µM throughout. Besides, the IC50 in assay [1] (hIDO IC50, Table 16) is < 10 µM.

For `NOCc1cccc2ccccc12` [compound 1767, O-(naphthalen-1-ylmethyl)hydroxylamine], the results for the EC50 at human IDO (Table 16) and on murine IDO (Table 16) were < 10 µM and 10 to 100 µM, respectively. For the same compound, the IC50 in assay [1] (hIDO IC50, Table 16) was < 10 µM.

On to `NOCC1CCc2ccccc2O1` (stereo not drawn) [compound 1768, O-(chroman-2-ylmethyl)hydroxylamine], for which the concentration for a half-maximal effect (EC50) at human IDO (Table 15) and on murine IDO (Table 15) was < 10 µM throughout. Further, the IC50 in assay [1] (hIDO IC50, Table 15) was < 10 µM.

On to `COc1ccc(OC)c(CON)c1` [compound 1771, O-(2,5-dimethoxybenzyl)hydroxylamine], for which the EC50 at human IDO (Table 15) and on murine IDO (Table 15) was < 10 µM in each case. Also, in assay [1] (hIDO IC50, Table 15), the half-maximal inhibitory concentration (IC50) was < 10 µM.

For `NOCc1cc2ccccc2o1` [compound 1774, O-(benzofuran-2-ylmethyl)hydroxylamine], the EC50 on human IDO (Table 15) and on murine IDO (Table 15) was < 10 µM each time. The IC50 in assay [1] (hIDO IC50, Table 15) is < 10 µM.

As for `NOCc1cccc(C(F)(F)F)c1` [compound 1775, O-(3-(trifluoromethyl)benzyl)hydroxylamine], the EC50 on human IDO (Table 16) and at murine IDO (Table 16) was < 10 µM each time. For the same compound, the half-inhibitory concentration (IC50) in assay [1] (hIDO IC50, Table 16) was < 10 µM.

For the compound `COc1ccc(CON)cc1` [compound 1815, O-(4-methoxybenzyl)hydroxylamine], the EC50 at human IDO (Table 16) is < 10 µM; at murine IDO (Table 16), 10 to 100 µM. In assay [1] (hIDO IC50, Table 16), the IC50 lay within 10 to 100 µM.

In the case of `NOCc1cccc(I)c1` [compound 1816, O-(3-iodobenzyl)hydroxylamine], the EC50 at human IDO (Table 16) is < 10 µM; at murine IDO (Table 16) it was 10 to 100 µM. Besides, in assay [1] (hIDO IC50, Table 16), the IC50 is < 10 µM.

For the compound `NOCc1ccccc1CON` [compound 1822, O,O′-(1,2-phenylenebis(methylene))bis(hydroxylamine)], the EC50 on human IDO (Table 16) and at murine IDO (Table 16) was 10 to 100 µM throughout. In addition, the IC50 in assay [1] (hIDO IC50, Table 16) lay within 10 to 100 µM.

Regarding `NOCc1cccc(CON)c1` [compound 1823, O,O′-(1,3-phenylenebis(methylene))bis(hydroxylamine)], the EC50 on human IDO (Table 16) is 10 to 100 µM; at murine IDO (Table 16) it was < 10 µM. In addition, the IC50 in assay [1] (hIDO IC50, Table 16) is 10 to 100 µM.

With `NOCc1cccc(N)c1` [compound 1824, 3-(aminooxymethyl)aniline], the EC50 was < 10 µM on human IDO (Table 15) and 10 to 100 µM at murine IDO (Table 15). Further, the IC50 in assay [1] (hIDO IC50, Table 15) lay in the range of 10 to 100 µM.

As to `NOCc1cccc(-c2ccccc2)c1` [compound 1825, O-(biphenyl-3-ylmethyl)hydroxylamine], the values for the EC50 on human IDO (Table 15) and at murine IDO (Table 15) were < 10 µM and 10 to 100 µM, respectively. Moreover, in assay [1] (hIDO IC50, Table 15), the IC50 was < 10 µM.

`NOCc1ccccc1-c1ccccc1` [compound 1827, O-(biphenyl-2-ylmethyl)hydroxylamine]: the EC50 at human IDO (Table 15) is < 10 µM; at murine IDO (Table 15) it was 10 to 100 µM. Further, the IC50 in assay [1] (hIDO IC50, Table 15) was < 10 µM.

Turning to `NOCc1cccc(NCc2ccccc2)c1` [compound 1828, 3-(aminooxymethyl)-N-benzylaniline], the results for the EC50 at human IDO (Table 15) and at murine IDO (Table 15) were 10 to 100 µM and 100 to 1000 µM, respectively. Further, the IC50 in assay [1] (hIDO IC50, Table 15) lay in the range of 100 to 1000 µM.

With `NOCc1cccc(Nc2ccccc2)c1` [compound 1829, 3-(aminooxymethyl)-N-phenylaniline], the EC50 at human IDO (Table 15) and at murine IDO (Table 15) was < 10 µM each time. In addition, the IC50 in assay [1] (hIDO IC50, Table 15) is < 10 µM.

Take `NOCc1ccccc1Nc1ccccc1` [compound 1871, 2-(aminooxymethyl)-N-phenylaniline]: the values for the EC50 at human IDO (Table 15) and on murine IDO (Table 15) were < 10 µM and 10 to 100 µM, respectively. For the same compound, the IC50 in assay [1] (hIDO IC50, Table 15) is < 10 µM.

Take `NOCc1cccc(NCc2ccccc2)c1` [compound 1872, 3-(aminooxymethyl)-N-benzylaniline]: the EC50 at human IDO (Table 15) and at murine IDO (Table 15) was < 10 µM in each case. Moreover, the IC50 in assay [1] (hIDO IC50, Table 15) is < 10 µM.

In the case of `N#Cc1cccc(CON)c1` [compound 1873, 3-(aminooxymethyl)benzonitrile], the EC50 at human IDO (Table 15) and on murine IDO (Table 15) was < 10 µM throughout. Also, in assay [1] (hIDO IC50, Table 15), the IC50 was < 10 µM.

Consider `NOCc1cccc(-c2ccc(Cl)cc2)c1` [compound 1878, O-((4′-chlorobiphenyl-3-yl)methyl)hydroxylamine], for which the concentration for a half-maximal effect (EC50) on human IDO (Table 15) is < 10 µM; at murine IDO (Table 15), 10 to 100 µM. Moreover, the IC50 in assay [1] (hIDO IC50, Table 15) is < 10 µM.

Regarding `NOCc1ccccc1-c1ccc(Cl)cc1` [compound 1879, O-((4′-chlorobiphenyl-2-yl)methyl)hydroxylamine], the EC50 on human IDO (Table 15) was < 10 µM; at murine IDO (Table 15), 10 to 100 µM. The IC50 in assay [1] (hIDO IC50, Table 15) is < 10 µM.

Take `COC(=O)CCC(ON)c1ccccc1` (stereo not drawn) [compound 1880, methyl 4-(aminooxy)-4-phenylbutanoate]: the values for the EC50 on human IDO (Table 15) and at murine IDO (Table 15) were < 10 µM and 100 to 1000 µM, respectively. For the same compound, the 50% inhibitory concentration (IC50) in assay [1] (hIDO IC50, Table 15) was < 10 µM.

With `Cc1ccc(-c2cccc(CON)c2)cc1` [compound 1881, O-((4′-methylbiphenyl-3-yl)methyl)hydroxylamine], the EC50 on human IDO (Table 15) is < 10 µM; at murine IDO (Table 15), 10 to 100 µM. The IC50 in assay [1] (hIDO IC50, Table 15) is 10 to 100 µM.

Take `COc1ccc(-c2cccc(CON)c2)cc1` [compound 1882, O-((4′-methoxybiphenyl-3-yl)methyl)hydroxylamine]: the results for the EC50 at human IDO (Table 15) and at murine IDO (Table 15) were < 10 µM and 10 to 100 µM, respectively. The IC50 in assay [1] (hIDO IC50, Table 15) is < 10 µM.

For the compound `COC(=O)C(ON)c1ccccc1` (stereo not drawn) [compound 1886, methyl 2-(aminooxy)-2-phenylacetate], the concentration for a half-maximal effect (EC50) at human IDO (Table 15) and on murine IDO (Table 15) was < 10 µM in each case. In assay [1] (hIDO IC50, Table 15), the IC50 is < 10 µM.

For `NOCc1cccc(-c2ccncc2)c1` [compound 1888, O-(3-(pyridin-4-yl)benzyl)hydroxylamine], the EC50 at human IDO (Table 15) was < 10 µM; on murine IDO (Table 15) it was 100 to 1000 µM. Further, the IC50 in assay [1] (hIDO IC50, Table 15) was in the range of 10 to 100 µM.

The values above are taken from patent US20130289083A1, “IDO Inhibitors” (priority 2007, published 2013).
